How the values were obtained:
[1] = Blood-brain barrier penetration (brain tissue to plasma concentration ratio); format: in vivo; conditions: rat, rats, four hours after dosing
Method: To determine whether the compound was able to cross the blood-brain barrier (BBB), the rats were administered with the test compound. Four hours after dosing, rats were sacrificed, blood and brain tissue were collected and the concentration of the test compound was analyzed. Brain permeation is defined as the ratio of the concentration of the compound in the brain tissue to the concentration in the plasma. P-glycoprotein is the blood-brain barrier efflux protein, […].

PC-9 tumor cell = experiment: CellTiter-Glo (CTG) cell viability assay, PC-9 tumor cell growth inhibition; conditions: Homo sapiens, PC-9, 72 h, read-out: PC-9 tumor cell growth inhibition IC50
Method: Cell viability of tumor cells with EGFR-activated mutations (exon 19-deficient Exon 19 Del) protein was detected using CellTiter-Glo (CTG) assay; about 5000 cells were seeded in each blank 96-well plate, 16 hours later, add the proportionally diluted compound, equilibrated at room temperature for 72 hours after the addition of the drug for 30 minutes. 100 μl of CellTiter-Glo reagent was added to each well and the orbital shaker was mixed for 2 minutes to induce cell lysis. The plate was incubated at room temperature for 10 minutes to stabilize the luminescence signal. The TECAN Infinite M1000 Pro instrument records the luminescence signal.

P-glycoprotein = P-glycoprotein (Homo sapiens, UniProt P08183); experiment: P-glycoprotein efflux substrate; format: in vitro ADME
Sequence of P-glycoprotein (P08183 whole entry): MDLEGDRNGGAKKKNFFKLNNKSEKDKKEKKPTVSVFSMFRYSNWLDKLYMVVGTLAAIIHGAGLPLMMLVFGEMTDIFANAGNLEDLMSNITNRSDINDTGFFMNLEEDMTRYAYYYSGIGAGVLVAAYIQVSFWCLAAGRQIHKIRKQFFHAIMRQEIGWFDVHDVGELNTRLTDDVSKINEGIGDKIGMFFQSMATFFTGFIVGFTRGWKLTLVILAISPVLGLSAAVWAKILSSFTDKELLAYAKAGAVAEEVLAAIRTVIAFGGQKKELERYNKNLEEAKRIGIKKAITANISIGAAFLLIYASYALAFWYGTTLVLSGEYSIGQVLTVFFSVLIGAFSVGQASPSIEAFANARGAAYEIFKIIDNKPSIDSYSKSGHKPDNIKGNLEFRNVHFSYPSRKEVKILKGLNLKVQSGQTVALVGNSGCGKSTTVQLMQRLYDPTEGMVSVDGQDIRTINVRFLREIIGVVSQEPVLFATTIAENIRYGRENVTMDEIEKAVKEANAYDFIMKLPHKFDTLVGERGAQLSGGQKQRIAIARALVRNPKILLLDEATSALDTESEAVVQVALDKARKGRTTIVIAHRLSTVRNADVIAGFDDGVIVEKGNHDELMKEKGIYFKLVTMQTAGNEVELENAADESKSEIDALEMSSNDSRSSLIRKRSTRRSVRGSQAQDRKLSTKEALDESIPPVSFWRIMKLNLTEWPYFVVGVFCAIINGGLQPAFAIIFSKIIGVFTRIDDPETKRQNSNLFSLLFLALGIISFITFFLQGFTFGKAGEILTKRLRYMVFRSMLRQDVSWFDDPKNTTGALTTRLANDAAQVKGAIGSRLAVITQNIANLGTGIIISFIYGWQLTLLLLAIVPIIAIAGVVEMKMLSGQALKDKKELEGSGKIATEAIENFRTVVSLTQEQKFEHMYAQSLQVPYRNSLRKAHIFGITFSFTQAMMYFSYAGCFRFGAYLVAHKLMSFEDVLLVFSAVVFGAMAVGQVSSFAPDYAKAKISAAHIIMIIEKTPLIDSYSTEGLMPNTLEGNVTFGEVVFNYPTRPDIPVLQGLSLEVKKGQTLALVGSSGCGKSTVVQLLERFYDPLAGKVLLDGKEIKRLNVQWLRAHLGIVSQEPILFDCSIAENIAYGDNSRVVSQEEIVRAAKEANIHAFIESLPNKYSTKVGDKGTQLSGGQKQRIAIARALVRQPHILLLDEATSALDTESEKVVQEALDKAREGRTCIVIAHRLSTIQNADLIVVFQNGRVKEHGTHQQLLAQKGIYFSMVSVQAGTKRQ

PC-9-luc tumor cells = experiment: Efficacy study on intracranial animal model (PC-9-luc); format: in vivo; conditions: Iressa human equivalent dose, 8 mice per group
Text: The injection was slowly preceded over a one-minute period. Upon completing injection, the needle was retained for another minute. After the needle removal, the hole was sealed with bone wax and the incision was closed. The tumor growth was monitored by image analysis. On Day 10, mice were randomized into 5 groups (8 mice per group) and start the treatments for three weeks.
The tumor growth was monitored by bioiluminense intensity. […] The survival benefits (no death or bodyweight loss less than 18%) treatment with compound X disclosed in table 3.

SMILES	Kp at 4 h [1]	IC50 (PC-9 tumor cell) [nM]	P-glycoprotein efflux substrate (P-glycoprotein)	survival (no death or bodyweight loss less than 18%), mice at D 20 (PC-9-luc tumor cells; D 20 post tumor implantation)	survival, mice at D 24 (PC-9-luc tumor cells; D 24 post tumor implantation)	survival, mice at D 27 (PC-9-luc tumor cells; D 27 post tumor implantation)	survival, mice at D 28 (PC-9-luc tumor cells; D 28 post tumor implantation)	survival, mice at D 30 (PC-9-luc tumor cells; D 30 post tumor implantation)	survival, mice at D 31 (PC-9-luc tumor cells; D 31 post tumor implantation)
[2H]C([2H])([2H])Oc1cc2ncnc(Nc3ccc(F)c(Cl)c3F)c2cc1O[C@H]1CCN(C2COC2)CC1(F)F [Compound 29, (S)—N-(3-chloro-2,4-difluorophenyl)-6-((3,3-difluoro-1-(oxetan-3-yl)piperidin-4-yl)oxy)-7-(methoxy-d3)quinazolin-4-amine]	> 0.3	< 1	–	–	–	–	–	–	–
COc1cc2ncnc(Nc3ccc(F)c(Cl)c3)c2cc1OCCCN1CCOCC1 [Iressa, gefitinib]	< 0.05	–	yes	8	7	7	7	7	4
